Our source for the Relative activity and inhibition values is ChEMBL document CHEMBL1130495, “Benzoylphenoxy analogs of isoprenoid diphosphates as photoactivatable substrates for bacterial prenyltransferases” (Bioorg Med Chem Lett, 1997).

Assay [1] in a line: Activity at concentration of 357 uM relative to FPS for 120 min. Format: functional.
The nature of assay [2]: Activity at concentration of 250 uM relative to HexPS for 5 min. Format: functional.
Assay [3] can be described thus: Activity as substrate for FPS relative to control. It is filed as functional.
Assay [4] is described as follows: Activity at concentration of 357 uM relative to FPS for 60 min. Format: functional.
For assay [5], the system named is Micrococcus luteus. Kind of assay: Percent inhibition against prenyltransferases of hexaprenyl diphosphate synthase (Hex PS) at concentration of 125 uM.
Assay [6] concerns Geobacillus stearothermophilus. Kind of assay: Percent inhibition against prenyltransferases of Undecaprenyl pyrophosphate synthetase (UPS) at concentration of 16 uM.
Assay [7] deals with Farnesyl pyrophosphate synthase (Geobacillus stearothermophilus). Kind of assay: Percent inhibition against prenyltransferases of farnesyl diphosphate synthase (FPS) at concentration of 50 uM.
Assay [8] in a line: Activity as substrate for Hex PS relative to control. Format: functional.
Assay [9] is described as follows: Activity at concentration of 250 uM relative to HexPS for 15 min. Format: functional.
Assay [10] in a line: Activity at concentration of 125 uM relative to HexPS for 5 min. It is filed as functional.
The subject of assay [11] is Farnesyl pyrophosphate synthase (Geobacillus stearothermophilus). The experiment in a line: Percent inhibition against prenyltransferases of farnesyl diphosphate synthase (FPS) at concentration of 125 uM.
A short description of assay [12]: Activity at concentration of 714 uM relative to FPS for 30 min. Format: functional.
Assay [13] has as its system Micrococcus luteus. Kind of assay: Percent inhibition against prenyltransferases of hexaprenyl diphosphate synthase (Hex PS) at concentration of 50 uM.
Assay [14] is described as follows: Activity as substrate for UPS relative to control. It is filed as functional.
In assay [15] the test system is Geobacillus stearothermophilus. The experiment in a line: Percent inhibition against prenyltransferases of Undecaprenyl pyrophosphate synthetase (UPS) at concentration of 125 uM.
Assay [16] is described as follows: Activity at concentration of 357 uM relative to FPS for 30 min. Format: functional.
In assay [17] the test system is Micrococcus luteus. Kind of assay: Percent inhibition against prenyltransferases of hexaprenyl diphosphate synthase (Hex PS) at concentration of 250 uM.
Assay [18] concerns Geobacillus stearothermophilus. The experiment in a line: Percent inhibition against prenyltransferases of Undecaprenyl pyrophosphate synthetase (UPS) at concentration of 32 uM.
A short description of assay [19]: Activity at concentration of 1428 uM relative to FPS for 30 min. It is filed as functional.
Assay [20] is described as follows: Activity at concentration of 125 uM relative to HexPS for 15 min. It is filed as functional.
The subject of assay [21] is Farnesyl pyrophosphate synthase (Geobacillus stearothermophilus). The experiment in a line: Percent inhibition against prenyltransferases of farnesyl diphosphate synthase (FPS) at concentration of 250 uM.
For assay [22] the test system is unchanged. Kind of assay: Percent inhibition against farnesyl diphosphate synthase (FPS) at concentration of 250 uM.

Consider `C/C(=C\COP(=O)(O)OP(=O)(O)O)CC/C=C(\C)COc1ccc(C(=O)c2ccccc2)cc1`, for which the Relative activity in assay [1] is 17; in assay [2], 9.8; in assay [3], 0.78; in assay [4], 48.1; in [8], 46.4; in assay [9], 4.3. The Relative activity in assay [10] came to 30.7; in assay [12], 64.4; in assay [14], 49.1; in assay [16] it was 67.3; in [19], 36.2; in assay [20], 9.2. In addition, the inhibition turned out to be 49.5% in the assay with Micrococcus luteus [5]; 29% in [6]; 84.4% in assay [7]; 94.4% in [11]; 14.4% in the assay on Micrococcus luteus [13]; 63% in assay [15]. The inhibition in the assay with Micrococcus luteus [17] turned out to be 86.4%; in assay [18] it was 53%; in [21], 95.5%.
As to `C/C(=C\COP(=O)(O)OP(=O)(O)O)COc1ccc(C(=O)c2ccccc2)cc1`, the Relative activity in [3] amounted to 0.06; in assay [8], 5.7. In addition, the inhibition with Micrococcus luteus [5] is 23.4%; in [6], 12.5%; in [11], 24.5%; in the assay on Micrococcus luteus [13] it was 8.8%; in assay [15], 57%; in the assay on Micrococcus luteus [17], 37%. Moreover, the inhibition was determined as 17.5% in assay [18] and 27.6% in assay [21].
Consider `C/C(=C\COP(=O)(O)OP(=O)(O)O)COc1cccc(C(=O)c2ccccc2)c1`, for which the inhibition in assay [22] stood at 19.8%; in the assay on Micrococcus luteus [5], 3.5%; in [6], 12.5%; in assay [11], 14.6%; with Micrococcus luteus [13] it was 3.1%; in assay [15], 68%. Also, the inhibition in the assay with Micrococcus luteus [17] was 10.6%; in [18], 22.5%. In addition, the Relative activity in assay [3] came to 0.22; in [8], 0.
`C/C(=C\COP(=O)(O)OP(=O)(O)O)CC/C=C(\C)COc1cccc(C(=O)c2ccccc2)c1`: the Relative activity was 37 in assay [1]; 5.5 in assay [2]; 1.83 in [3]; 66.6 in assay [4]; 21.6 in assay [8]; 1.9 in assay [9]. For the same compound, the Relative activity amounted to 32.5 in [10]; 61.2 in assay [12]; 55.7 in assay [14]; 62.2 in assay [16]; 75.9 in assay [19]; 10.8 in [20]. Besides, the inhibition in the assay on Micrococcus luteus [5] amounted to 37%; in assay [6], 38%; in [7], 86%; in [11] it was 94.9%; in the assay with Micrococcus luteus [13], 9.2%; in [15], 63%. Also, the results for the inhibition (with Micrococcus luteus [17]; in [18]; in assay [21]) were 80.5%, 58% and 96.1%, respectively.
